Three compounds from ChEMBL document CHEMBL1208773, “Improving the permeability of the hydroxyethylamine BACE-1 inhibitors: structure-activity relationship of P2' substituents” (Bioorg Med Chem Lett, 2010) can be followed below.

Series [1] can be described thus: Lipophilicity, log P of the compound. The series is classed as physicochemical. The note with it: octanol/water.
The nature of series [2]: Dissociation constant, pKa of the compound. The series is classed as physicochemical.

In the case of `CC(=O)N[C@@H](Cc1cc(F)cc(F)c1)[C@H](O)CNC1(c2cccc(C3CCCO3)c2)CCCCC1` (some centres undefined), the logP (as a rule, a log measure of how a compound divides between an organic and an aqueous phase) in series [1] is 4.
Compound `CC(=O)N[C@@H](Cc1cc(F)cc(F)c1)[C@H](O)CNC1(c2cccc(C(C)(C)C)c2)CCCCC1` registered a logP in series [1] of 4.8. The pKa – broadly, the negative logarithm of the acid dissociation constant – in series [2] is 8.1.
Take `CC(=O)N[C@@H](Cc1cc(F)cc(F)c1)[C@H](O)CNC1(c2cccc(C3CCOC3)c2)CCCCC1` (some centres undefined): in series [1], the logP was 4.
